Measured values: the Kinase Knowledgebase extract (Sharma et al. 2016)
pIC50: −log10 of the molar value.

What follows are compounds tested against PIK3CG (human) (UniProt P48736) (assay: Assessment of PIK3CG Kinase Activity).
Sequence of PIK3CG (human) (P48736 whole entry, looked up): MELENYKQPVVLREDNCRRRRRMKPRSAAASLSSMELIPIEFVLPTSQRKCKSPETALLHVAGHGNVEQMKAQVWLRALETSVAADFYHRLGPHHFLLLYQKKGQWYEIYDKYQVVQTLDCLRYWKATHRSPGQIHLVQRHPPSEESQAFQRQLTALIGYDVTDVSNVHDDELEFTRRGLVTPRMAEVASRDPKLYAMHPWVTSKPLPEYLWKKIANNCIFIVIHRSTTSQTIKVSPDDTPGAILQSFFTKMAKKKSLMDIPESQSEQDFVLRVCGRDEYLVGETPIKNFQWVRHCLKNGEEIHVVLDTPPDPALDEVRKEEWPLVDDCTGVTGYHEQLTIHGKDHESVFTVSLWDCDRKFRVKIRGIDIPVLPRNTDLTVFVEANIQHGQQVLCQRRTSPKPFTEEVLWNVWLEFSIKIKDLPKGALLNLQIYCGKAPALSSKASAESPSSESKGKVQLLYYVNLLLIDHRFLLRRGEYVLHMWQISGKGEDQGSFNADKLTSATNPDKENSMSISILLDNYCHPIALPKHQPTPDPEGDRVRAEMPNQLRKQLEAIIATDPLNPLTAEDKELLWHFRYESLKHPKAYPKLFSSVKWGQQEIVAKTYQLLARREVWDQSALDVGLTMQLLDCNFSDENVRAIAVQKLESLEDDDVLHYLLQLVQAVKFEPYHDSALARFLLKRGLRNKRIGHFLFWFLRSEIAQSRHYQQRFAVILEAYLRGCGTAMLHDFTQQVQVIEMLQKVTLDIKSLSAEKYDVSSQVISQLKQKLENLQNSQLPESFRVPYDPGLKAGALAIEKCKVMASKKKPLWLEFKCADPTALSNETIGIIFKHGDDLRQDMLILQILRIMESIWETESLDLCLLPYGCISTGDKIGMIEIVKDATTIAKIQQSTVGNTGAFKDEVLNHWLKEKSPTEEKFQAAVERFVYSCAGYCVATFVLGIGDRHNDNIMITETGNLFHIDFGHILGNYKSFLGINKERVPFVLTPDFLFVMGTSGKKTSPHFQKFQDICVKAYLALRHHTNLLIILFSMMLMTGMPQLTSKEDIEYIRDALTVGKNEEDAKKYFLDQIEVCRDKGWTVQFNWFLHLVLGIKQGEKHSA

pIC50, > 6.10:
CNC(=O)c1ccc(-c2ncc3c(n2)-c2sc(NC(C)=O)nc2CC3)cc1
CNC(=O)c1nn(-c2ccccc2Cl)c2c1CCc1nc(NC(C)=O)sc1-2
CC(=O)Nc1nc2c(s1)-c1c(cnn1-c1ccc(CC(=O)N3CCN(c4ccccn4)CC3)cc1)CC2
O=C(CO)Nc1nc2c(s1)-c1c(cnn1-c1ccccc1)CC2
CC(=O)Nc1nc2c(s1)-c1c(c(-c3ccco3)nn1-c1ccc(C(=O)NC3CCN(C)CC3)cc1Cl)CC2
CC(=O)Nc1nc2c(s1)-c1nn(-c3ccccc3Cl)c(-c3cn(C)cn3)c1CC2
CC(=O)Nc1nc2c(s1)-c1nn(-c3ccccc3Br)c(-c3ccco3)c1CC2
CC(=O)Nc1nc2c(s1)-c1c(cnn1-c1ccc(C(=O)NCCc3c[nH]cn3)cc1)CC2
CC(=O)Nc1nc2c(s1)-c1nn(C(=O)c3ccccc3Cl)cc1CC2
CCSC(=O)Nc1nc2c(s1)-c1c(cnn1-c1ccccc1)CC2
CC(=O)Nc1nc2c(s1)-c1c(c(-c3ccco3)nn1-c1ccccc1F)CC2
CC(=O)Nc1nc2c(s1)-c1cc([N+](=O)[O-])ccc1CC2
O=C(Nc1nc2c(s1)-c1c(cnn1-c1ccccc1)CC2)N1CCOCC1
CC(=O)Nc1nc2c(s1)-c1c(cnn1-c1ccc(C(=O)NCCO)cc1)CC2
NC(=O)[C@@H]1CCCN1CC(=O)Nc1nc2c(s1)-c1c(cnn1-c1ccccc1)CC2
CC(=O)Nc1nc2c(s1)-c1nc(-c3ccccc3Cl)nc(O)c1CC2
CC(=O)Nc1nc2c(s1)-c1c(cnn1-c1ccc(Cl)cc1)CC2
CC(=O)Nc1nc2c(s1)-c1c(c(-c3ccco3)nn1-c1ccccc1)CC2
O=C(Nc1nc2c(s1)-c1c(cnn1-c1ccccc1)C2)N1CCCCC1
CC(=O)Nc1nc2c(s1)-c1c(c(C(C)C)nn1-c1ccc(C(=O)NCc3ccncc3)cc1Cl)CC2
CC(=O)Nc1nc2c(s1)-c1c(c(C)nn1-c1ccccc1C(F)(F)F)CC2
CC(=O)Nc1nc2c(s1)-c1c(cnn1-c1ccc(C(=O)N[C@@H](CCC(=O)O)C(N)=O)cc1Cl)CC2
CCCn1cc2c(n1)-c1sc(NC(C)=O)nc1CC2
C=C1CCN(C(=O)c2ccc(-n3ncc4c3-c3sc(NC(C)=O)nc3CC4)cc2)CC1
CC(=O)Nc1nc2c(s1)-c1c(cnn1-c1ccc(C#N)cc1)CC2
CC(=O)Nc1nc2c(s1)-c1c(cnn1-c1ccc(C(=O)N3CCc4[nH]cnc4C3)cc1)CC2
CC(=O)Nc1nc2c(s1)-c1c(cnn1-c1ccc(C(=O)N[C@H](C(N)=O)[C@@H](C)O)cc1Cl)CC2
CC(=O)Nc1nc2c(s1)-c1c(cnn1-c1ccc(CC(=O)N3CCCC(=O)CC3)cc1)CC2
CC(=O)Nc1nc2c(s1)-c1c(cnn1-c1ccc(C(=O)N[C@@H](C(N)=O)C(C)C)cc1Cl)CC2
CC(=O)Nc1nc2c(s1)-c1c(c(C(=O)N3CCSC3)nn1-c1ccccc1)CC2
CC(=O)Nc1nc2c(s1)-c1c(cnn1-c1ccc(CC(=O)N3CCC(C(N)=O)CC3)cc1)CC2
CC(=O)Nc1nc2c(s1)-c1c(cnn1-c1ccc(CC(=O)N3CCCC3c3ccccn3)cc1)CC2 (stereo not drawn)
CC(=O)Nc1nc2c(s1)-c1c(c(-c3ccoc3)nn1-c1ccccc1C)CC2
CC(=O)Nc1nc2c(s1)-c1c(cnn1-c1ccc(C(=O)NC(C)(C)CN3CCOCC3)cc1)CC2
CC(=O)Nc1nc2c(s1)-c1c(cnn1-c1ccc(C(=O)N3CCC4(CC3)CNC(=O)O4)cc1)CC2
CN(C)CCN(C)C(=O)Nc1nc2c(s1)-c1c(cnn1-c1ccccc1Cl)C2
CC(=O)Nc1nc2c(s1)-c1c(cnn1-c1cccc(Br)c1)CC2
CC(=O)Nc1nc2c(s1)-c1c(cnn1-c1ccc(CC(=O)N(C)Cc3ccccn3)cc1)CC2
CC(=O)Nc1nc2c(s1)-c1c(c(C(F)(F)F)nn1-c1ccccc1)CC2
CC(=O)Nc1nc2c(s1)-c1c(cnn1-c1ccc(C(=O)NCCC3CCCN3C)cc1)CC2 (stereo not drawn)
CC(=O)Nc1nc2c(s1)-c1c(cnn1-c1ccc(CC(=O)N3CCC4(CC3)CNC(=O)O4)cc1)CC2
CC(=O)Nc1nc2c(s1)-c1c(cnn1-c1ccc(C(=O)N[C@@H](C(N)=O)[C@H](C)O)cc1Cl)CC2
CC(=O)Nc1nc2c(s1)-c1c(cnn1-c1ccc(C(=O)N[C@@H](Cc3ccc(O)cc3)C(N)=O)cc1Cl)CC2
COc1cc(-n2ncc3c2-c2sc(NC(C)=O)nc2CC3)nc(OC)n1
CC(=O)Nc1nc2c(s1)-c1c(cnn1-c1ccc(CC(=O)NCC(=O)N(C)C)cc1)CC2
CC(=O)Nc1nc2c(s1)-c1c(cnn1-c1ccc(C(=O)NC3CCC(=O)O3)cc1)CC2 (stereo not drawn)
CC(=O)Nc1nc2c(s1)-c1c(cnn1-c1ccc(C(=O)NCC3OCCO3)cc1)CC2
CC(=O)Nc1nc2c(s1)-c1nc(C)ncc1CC2
CC(=O)Nc1nc2c(s1)-c1c(c(-c3ccco3)nn1-c1ccc(Br)cc1C(F)(F)F)CC2
CC(=O)Nc1nc2c(s1)-c1c(cnn1-c1ccc3ccccc3c1)CC2
CC(=O)Nc1nc2c(s1)-c1nc(N3CCCC(CNC(C)C)C3)ncc1CC2 (stereo not drawn)
CC(=O)Nc1nc2c(s1)-c1c(cnn1-c1cccc(C)c1C)CC2
CC(C)c1nn(-c2ccccc2Cl)c2c1CCc1nc(NC(N)=O)sc1-2
CC(=O)Nc1nc2c(s1)-c1c(cnn1-c1ccc(C(=O)N[C@@H](CCCCN)C(N)=O)cc1Cl)CC2
CC(=O)Nc1nc2c(s1)-c1c(cnn1-c1ccc(C(=O)N(C)CC#N)cc1)CC2
COC(=O)c1nn(-c2ccc(C)cc2)c2c1CCc1nc(NC(C)=O)sc1-2
Cc1ccccc1-n1ncc2c1C1SC(N)=NC1C2 (stereo not drawn)
CC(=O)Nc1nc2c(s1)-c1c(cnn1-c1ccccc1Cl)C2
CC(=O)Nc1nc2c(s1)-c1c(cnn1-c1ccc(C(=O)Nc3ccc(N4CCN(C)CC4)cc3)cc1)CC2
CCc1ccccc1-n1ncc2c1-c1sc(NC(C)=O)nc1C2
CC(=O)Nc1nc2c(s1)-c1c(cnn1-c1ccc(C(=O)N3CCN(C)CC3)cc1)CC2
Nc1ncc2c(n1)-c1sc(N)nc1CC2
COC(=O)Nc1nn(-c2ccccc2Cl)c2c1CCc1nc(NC(C)=O)sc1-2
CC(=O)Nc1nc2c(s1)-c1c(cnn1CCC(C)C)CC2
CC(=O)Nc1nc2c(s1)-c1c(cnn1-c1ccc(C(F)(F)F)cc1)CC2
CC(=O)Nc1nc2c(s1)-c1c(cnn1-c1ccc(C(=O)NCc3nccn3C)cc1)CC2
CC(=O)Nc1nc2c(s1)-c1c(cnn1-c1ccc(S(N)(=O)=O)cc1)CC2
COc1ccccc1-c1ncc2c(n1)-c1sc(NC(C)=O)nc1CC2
CC(=O)Nc1nc2c(s1)-c1c(cnn1-c1ccccc1C(F)(F)F)CC2
CC(=O)Nc1nc2c(s1)-c1c(cnn1-c1ccc(C(=O)NC(C)CO)cc1)CC2 (stereo not drawn)
CC(=O)Nc1nc2c(s1)-c1c(cnn1-c1ccc(C(=O)N[C@H]3CC[C@@H](N4CCCCC4)CC3)cc1)CC2
CC(=O)Nc1nc2c(s1)-c1c(cnn1-c1ccc(C(=O)NC(C)(C)CN3CCCCC3)cc1)CC2
CC(=O)Nc1nc2c(s1)-c1c(cnn1-c1ccc(C(=O)N[C@H]3CC[C@H](NC(=O)Cc4ccccc4)CC3)cc1)CC2
CC(=O)Nc1nc2c(s1)-c1c(cnn1C(=O)C(C)C)CC2
CC(=O)Nc1nc2c(s1)-c1c(cnn1-c1cccc(C)c1)C2
CC(=O)Nc1nc2c(s1)-c1nc(-c3ccc(C)cc3)ncc1CC2
CC(=O)Nc1nc2c(s1)-c1c(cnn1-c1ccc(C(=O)N[C@H]3CC[C@H](N4CCCCC4)CC3)cc1)CC2
CC(=O)Nc1nc2c(s1)-c1c(cnn1-c1ccc(C(=O)N3CCC[C@H]3C(N)=O)cc1)CC2
CC(=O)Nc1nc2c(s1)-c1c(cnn1-c1cccc(N3C4CCC3CC(O)C4)c1)CC2 (stereo not drawn)
CC(=O)Nc1nc2c(s1)-c1nn(-c3ccccc3C)c(-c3cn(C)cn3)c1CC2
CC(=O)Nc1nc2c(s1)-c1c(c(-c3ccccc3)nn1-c1ccccc1Cl)CC2
COCc1nn(-c2ccc(C(=O)N(C)Cc3ccncc3)cc2Cl)c2c1CCc1nc(NC(C)=O)sc1-2
CC(=O)Nc1nc2c(s1)-c1c(cnn1-c1ccc(C(=O)NCc3ccccc3C(N)=O)cc1)CC2
CC(=O)Nc1nc2c(s1)-c1c(cnn1C(=O)c1ccccc1)CC2
Cc1ccccc1-c1ncc2c(n1)-c1sc(NC(=O)N(C)C)nc1CC2
CCN1CCCC1CNCC(=O)Nc1nc2c(s1)-c1c(cnn1-c1ccccc1)CC2 (stereo not drawn)
CC(=O)Nc1nc2c(s1)-c1c(cnn1-c1ccccc1C(C)C)C2
CC(=O)Nc1ccc2c(c1)-c1sc(NC(C)=O)nc1CC2
